In US8962596B2 (Array BioPharma Inc., priority 2010, dated 2015):

What was measured:
Format in all cases: biochemical
[1] = target: T1, JAK2 (Homo sapiens, UniProt O60674); assay: JAK2 Inhibition Assay (Omnia kinase fluorescence peptide substrate assay); details: averaged IC50 ranges; assay of Example C; 25 μM (Km app) or 1 mM ATP, 5 nM JAK2
T1 construct: purchased Invitrogen Corporation, Carlsbad, Calif; PV4288
In short: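 A 10-point, 3-fold compound series (top 10 μM, 2% DMSO) was tested against 5 nM JAK2 with 10 μM Omnia Y7 substrate and either 1 mM or 25 μM (Km app) ATP. Buffer: pH 7.4 HEPES, MgCl2, Triton X-100, DTT. Sox fluorescence was monitored kinetically for 45 min; IC50 is the concentration giving 50 POC on a 4-parameter fit.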

[2] = target: T2, Human Tyk2 kinase domain (Homo sapiens, UniProt P29597); assay: Tyk2 Inhibition Assay (Omnia kinase fluorescence peptide substrate assay); details: averaged IC50 ranges; assay of Example A; 10 μM (Km app) or 1 mM ATP, 2 nM Tyk2
T2 construct: comprising amino acids 886 to 1187 with 10 additional histidine residues; 10xHis (histidine tag) (C, cleaved yes); made in house
T2 sequence (P29597 886-1187): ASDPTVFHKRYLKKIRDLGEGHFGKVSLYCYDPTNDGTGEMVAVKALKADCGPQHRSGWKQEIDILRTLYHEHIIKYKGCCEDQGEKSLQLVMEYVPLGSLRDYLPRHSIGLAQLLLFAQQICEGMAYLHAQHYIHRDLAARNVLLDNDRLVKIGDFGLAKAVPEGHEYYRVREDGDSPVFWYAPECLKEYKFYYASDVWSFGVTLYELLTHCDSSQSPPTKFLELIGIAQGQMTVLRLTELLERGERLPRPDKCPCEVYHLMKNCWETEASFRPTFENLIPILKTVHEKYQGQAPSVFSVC
In short: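 2 nM His-tag-cleaved kinase domain (aa 886–1187) with 8 μM Omnia Y12 peptide, 10 μM (Km app) or 1 mM ATP, pH 7.4 HEPES/10 mM MgCl2, 2% DMSO. Fluorescence (ex 360/em 485 nm) every 50 s for 45 min; IC50 from 4-parameter fit of POC, top dose 10 μM.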

[3] = target: T3, JAK3 (Homo sapiens, UniProt P52333); assay: JAK3 Inhibition Assay (Omnia kinase fluorescence peptide substrate assay); details: averaged IC50 ranges; assay of Example D; 10 μM (Km app) or 1 mM ATP, 2.5 nM JAK3
T3 construct: purchased Invitrogen Corporation, Carlsbad, Calif; PV4080
T3 sequence (P52333 1-1124): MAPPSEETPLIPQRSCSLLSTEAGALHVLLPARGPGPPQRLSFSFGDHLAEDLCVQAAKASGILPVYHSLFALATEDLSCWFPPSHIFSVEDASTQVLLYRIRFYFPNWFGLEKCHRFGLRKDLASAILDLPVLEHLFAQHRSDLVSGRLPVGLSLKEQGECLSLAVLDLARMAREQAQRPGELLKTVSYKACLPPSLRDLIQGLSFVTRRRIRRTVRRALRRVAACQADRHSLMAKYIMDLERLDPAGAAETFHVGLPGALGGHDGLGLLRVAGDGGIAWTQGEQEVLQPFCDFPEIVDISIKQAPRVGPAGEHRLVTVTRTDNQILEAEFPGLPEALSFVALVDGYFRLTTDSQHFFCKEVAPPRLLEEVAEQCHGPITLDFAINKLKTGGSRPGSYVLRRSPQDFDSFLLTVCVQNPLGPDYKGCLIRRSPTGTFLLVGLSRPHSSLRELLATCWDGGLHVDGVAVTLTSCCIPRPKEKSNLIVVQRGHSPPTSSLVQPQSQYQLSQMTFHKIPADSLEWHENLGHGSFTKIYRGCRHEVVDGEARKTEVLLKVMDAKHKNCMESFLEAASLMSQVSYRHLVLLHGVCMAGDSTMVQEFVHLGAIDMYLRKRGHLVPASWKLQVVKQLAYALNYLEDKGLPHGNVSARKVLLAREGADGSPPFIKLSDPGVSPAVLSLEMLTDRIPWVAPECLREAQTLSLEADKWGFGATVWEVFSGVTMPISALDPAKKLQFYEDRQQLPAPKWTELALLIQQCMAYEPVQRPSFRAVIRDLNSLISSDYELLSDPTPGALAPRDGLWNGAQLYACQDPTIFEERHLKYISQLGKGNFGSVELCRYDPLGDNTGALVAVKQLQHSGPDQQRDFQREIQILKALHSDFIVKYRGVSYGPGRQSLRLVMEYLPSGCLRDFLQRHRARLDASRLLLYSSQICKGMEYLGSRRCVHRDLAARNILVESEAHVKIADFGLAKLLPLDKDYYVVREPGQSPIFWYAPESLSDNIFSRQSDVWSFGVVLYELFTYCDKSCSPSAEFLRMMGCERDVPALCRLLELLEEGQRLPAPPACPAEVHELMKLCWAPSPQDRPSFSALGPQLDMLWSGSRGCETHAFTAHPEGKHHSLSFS
In short: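 Kinase at 2.5 nM with 10 µM Omnia Y7 peptide and 10 µM (Km app) or 1 mM ATP in 25 mM HEPES pH 7.4, 10 mM MgCl2, 1 mM DTT, 0.01% Triton X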

[4] = target: T4, JAK1 (Homo sapiens, UniProt P23458); assay: JAK1 Inhibition Assay (Omnia kinase fluorescence peptide substrate assay); details: averaged IC50 ranges; assay of Example B; 40 μM (Km app) or 1 mM ATP, 15 nM JAK1
T4 construct: purchased Invitrogen Corporation, Carlsbad, Calif; PV4775
T4 sequence (P23458 whole entry): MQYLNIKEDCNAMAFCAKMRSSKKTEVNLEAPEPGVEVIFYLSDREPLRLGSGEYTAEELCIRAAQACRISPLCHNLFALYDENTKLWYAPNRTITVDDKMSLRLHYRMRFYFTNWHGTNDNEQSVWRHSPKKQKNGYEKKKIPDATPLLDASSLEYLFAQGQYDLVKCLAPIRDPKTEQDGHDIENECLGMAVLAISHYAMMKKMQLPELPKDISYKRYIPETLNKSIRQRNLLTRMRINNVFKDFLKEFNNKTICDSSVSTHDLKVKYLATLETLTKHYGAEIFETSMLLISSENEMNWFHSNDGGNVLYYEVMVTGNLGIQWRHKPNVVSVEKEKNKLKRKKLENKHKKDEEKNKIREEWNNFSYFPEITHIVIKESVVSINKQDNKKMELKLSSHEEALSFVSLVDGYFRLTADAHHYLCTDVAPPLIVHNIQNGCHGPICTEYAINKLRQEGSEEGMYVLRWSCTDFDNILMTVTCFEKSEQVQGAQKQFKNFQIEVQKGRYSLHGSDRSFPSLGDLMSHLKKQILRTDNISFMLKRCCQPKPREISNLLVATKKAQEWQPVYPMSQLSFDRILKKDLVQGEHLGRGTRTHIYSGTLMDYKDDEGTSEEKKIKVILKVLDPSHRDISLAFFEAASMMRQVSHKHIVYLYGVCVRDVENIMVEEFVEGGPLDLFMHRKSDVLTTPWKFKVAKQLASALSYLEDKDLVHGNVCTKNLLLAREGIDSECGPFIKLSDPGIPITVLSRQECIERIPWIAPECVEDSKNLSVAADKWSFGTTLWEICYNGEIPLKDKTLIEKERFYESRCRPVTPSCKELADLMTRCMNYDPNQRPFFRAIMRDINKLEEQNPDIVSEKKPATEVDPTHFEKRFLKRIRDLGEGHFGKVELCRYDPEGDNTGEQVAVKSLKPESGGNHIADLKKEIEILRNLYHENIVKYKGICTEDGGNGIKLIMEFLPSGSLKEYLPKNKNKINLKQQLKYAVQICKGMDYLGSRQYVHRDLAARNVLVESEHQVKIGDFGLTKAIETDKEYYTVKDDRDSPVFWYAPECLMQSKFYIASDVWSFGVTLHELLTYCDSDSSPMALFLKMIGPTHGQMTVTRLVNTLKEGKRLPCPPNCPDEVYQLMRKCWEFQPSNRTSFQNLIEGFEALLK

T1 sequence (O60674 whole entry): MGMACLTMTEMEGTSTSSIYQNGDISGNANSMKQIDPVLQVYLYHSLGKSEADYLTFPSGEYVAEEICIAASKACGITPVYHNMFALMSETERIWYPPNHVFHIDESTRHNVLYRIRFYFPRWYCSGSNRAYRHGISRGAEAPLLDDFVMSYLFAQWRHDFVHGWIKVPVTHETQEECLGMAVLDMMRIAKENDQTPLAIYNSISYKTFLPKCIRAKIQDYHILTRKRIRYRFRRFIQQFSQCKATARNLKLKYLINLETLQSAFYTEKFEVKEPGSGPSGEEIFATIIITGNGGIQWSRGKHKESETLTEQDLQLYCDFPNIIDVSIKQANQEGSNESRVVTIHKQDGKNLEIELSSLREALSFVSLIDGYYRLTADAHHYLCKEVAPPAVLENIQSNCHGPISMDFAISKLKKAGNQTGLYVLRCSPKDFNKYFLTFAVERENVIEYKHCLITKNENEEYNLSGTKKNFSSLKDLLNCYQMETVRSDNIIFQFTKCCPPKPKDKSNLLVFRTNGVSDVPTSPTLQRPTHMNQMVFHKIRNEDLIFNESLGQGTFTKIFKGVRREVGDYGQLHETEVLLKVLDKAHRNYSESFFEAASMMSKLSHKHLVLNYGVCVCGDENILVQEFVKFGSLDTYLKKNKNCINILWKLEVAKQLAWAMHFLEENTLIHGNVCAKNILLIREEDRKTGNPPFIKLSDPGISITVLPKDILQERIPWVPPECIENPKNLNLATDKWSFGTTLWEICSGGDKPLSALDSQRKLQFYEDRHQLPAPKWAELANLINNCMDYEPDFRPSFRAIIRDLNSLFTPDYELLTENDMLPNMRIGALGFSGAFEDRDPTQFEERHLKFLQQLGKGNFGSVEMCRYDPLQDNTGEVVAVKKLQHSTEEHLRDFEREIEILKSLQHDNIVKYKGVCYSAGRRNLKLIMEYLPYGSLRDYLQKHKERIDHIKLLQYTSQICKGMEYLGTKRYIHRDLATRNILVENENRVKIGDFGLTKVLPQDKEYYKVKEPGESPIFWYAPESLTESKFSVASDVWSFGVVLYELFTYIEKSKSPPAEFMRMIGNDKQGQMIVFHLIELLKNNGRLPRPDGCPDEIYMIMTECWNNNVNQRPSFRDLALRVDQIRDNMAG

Row | Structure (SMILES) | IC50 [1] [nM] | IC50 [2] [nM] | IC50 [3] [nM] | IC50 [4] [nM]
1 | CN1CCc2ccc(-c3cc4nccn4c(-c4cnn(C(CC#N)C5CC5)c4)n3)cc2C1 (stereo not shown) [Example 55, 3-Cyclopropyl-3-(4-(7-(2-methyl-1,2,3,4-tetrahydroisoquinolin-7-yl)imidazo[1,2-c]pyrimidin-5-yl)-1H-pyrazol-1-yl)propanenitrile] | 10 to 100 | 10 to 100 | 100 to 1000 | 10 to 100
2 | Cc1nn(C2(CC#N)CN(CC(F)(F)F)C2)cc1-c1nc(-c2cnn(C)c2)cc2nccn12 [Example 108, 2-(3-(3-methyl-4-(7-(1-methyl-1H-pyrazol-4-yl)imidazo[1,2-c]pyrimidin-5-yl)-1H-pyrazol-1-yl)-1-(2,2,2-trifluoroethyl)azetidin-3-yl)acetonitrile] | 100 to 1000 | 10 to 100 | > 1000 | > 1000
3 | Cn1cc(-c2cc3nccn3c(-c3cnn(C4(CC#N)CC5(CCCCC5)C4)c3)n2)cn1 [Example 151, 2-(2-(4-(7-(1-methyl-1H-pyrazol-4-yl)imidazo[1,2-c]pyrimidin-5-yl)-1H-pyrazol-1-yl)spiro[3.5]nonan-2-yl)acetonitrile] | 10 to 100 | < 10 | 100 to 1000 | 100 to 1000
4 | Cn1cc(-c2cc3nccn3c(-c3cnn(C(CC#N)c4cccnc4)c3)n2)cn1 (stereo not shown) [Example 7, 3-(4-(7-(1-methyl-1H-pyrazol-4-yl)imidazo[1,2-c]pyrimidin-5-yl)-1H-pyrazol-1-yl)-3-(pyridin-3-yl)propanenitrile] | 10 to 100 | < 10 | 100 to 1000 | 10 to 100
5 | CN1CCN(c2ccc(-c3cc4nccn4c(-c4cnn(C(CC#N)C5CC5)c4)n3)cc2)CC1 (stereo not shown) [Example 59, 3-Cyclopropyl-3-(4-(7-(4-(4-methylpiperazin-1-yl)phenyl)imidazo[1,2-c]pyrimidin-5-yl)-1H-pyrazol-1-yl)propanenitrile] | 10 to 100 | < 10 | 100 to 1000 | 10 to 100
6 | Cn1cc(-c2cc3nccn3c(-c3cnn(C4(CC#N)CN(c5ncccn5)C4)c3)n2)cn1 [Example 68, 2-(3-(4-(7-(1-Methyl-1H-pyrazol-4-yl)imidazo[1,2-c]pyrimidin-5-yl)-1H-pyrazol-1-yl)-1-(pyrimidin-2-yl)azetidin-3-yl)acetonitrile] | > 1000 | 100 to 1000 | > 1000 | > 1000

Now from value to compound:

Row | IC50 [1] [nM] | IC50 [2] [nM] | IC50 [3] [nM] | IC50 [4] [nM] | Structure (SMILES)
7 | 10 to 100 | < 10 | > 1000 | 100 to 1000 | CC(C)n1cc(-c2cc3nccn3c(-c3cnn(C4(CC#N)CN(CC(F)(F)F)C4)c3)n2)cn1 [Example 100, 2-(3-(4-(7-(1-Isopropyl-1-H-pyrazol-4-yl)imidazo[1,2-c]pyrimidin-5-yl)-1H-pyrazol-1-yl)-1-(2,2,2-trifluoroethyl)azetidin-3-yl)acetonitrile]
8 | 10 to 100 | < 10 | 100 to 1000 | 100 to 1000 | N#CCC(C1CC1)n1cc(-c2nc(-c3cnn(Cc4cccnc4)c3)cc3nccn23)cn1 (stereo not shown) [Example 35, 3-cyclopropyl-3-(4-(7-(1-(pyridin-3-ylmethyl)-1H-pyrazol-4-yl)imidazo[1,2-c]pyrimidin-5-yl)-1H-pyrazol-1-yl)propanenitrile]
9 | 10 to 100 | < 10 | 100 to 1000 | 100 to 1000 | Cn1cc(-c2cc3ncc(F)n3c(-c3cnn(C(CC#N)C4CC4)c3)n2)cn1 (stereo not shown) [Example 152, 3-cyclopropyl-3-(4-(3-fluoro-7-(1-methyl-1H-pyrazol-4-yl)imidazo[1,2-c]pyrimidin-5-yl)-1H-pyrazol-1-yl)propanenitrile]
10 | 10 to 100 | 10 to 100 | 100 to 1000 | 10 to 100 | CN1CCc2cc(-c3cc4nccn4c(-c4cnn(C(CC#N)C5CC5)c4)n3)ccc2C1 (stereo not shown) [Example 53, 3-Cyclopropyl-3-(4-(7-(2-methyl-1,2,3,4-tetrahydroisoquinolin-6-yl)imidazo[1,2-c]pyrimidin-5-yl)-1H-pyrazol-1-yl)propanenitrile]
